# Test results published in patent publication US20240116985A1, “STAPLED PEPTIDES AND METHODS THEREOF” (priority 2020, published 2024).
# pIC50: −log10 of the molar value. Like-named read-outs stand apart in the source and are kept apart here.
# Columns and labels:
# [1] = molecular target: T1, full-length beta-Catenin (Uniprot ID P35222) (Homo sapiens, UniProt P35222); assay: Fluorescence polarization IC50 (beta-catenin / 5FAM-TCF4 10-53 competition); type: binding
# T1 construct: 10 nM full-length beta-Catenin (Uniprot ID P35222)
# T1 sequence (P35222 1-781): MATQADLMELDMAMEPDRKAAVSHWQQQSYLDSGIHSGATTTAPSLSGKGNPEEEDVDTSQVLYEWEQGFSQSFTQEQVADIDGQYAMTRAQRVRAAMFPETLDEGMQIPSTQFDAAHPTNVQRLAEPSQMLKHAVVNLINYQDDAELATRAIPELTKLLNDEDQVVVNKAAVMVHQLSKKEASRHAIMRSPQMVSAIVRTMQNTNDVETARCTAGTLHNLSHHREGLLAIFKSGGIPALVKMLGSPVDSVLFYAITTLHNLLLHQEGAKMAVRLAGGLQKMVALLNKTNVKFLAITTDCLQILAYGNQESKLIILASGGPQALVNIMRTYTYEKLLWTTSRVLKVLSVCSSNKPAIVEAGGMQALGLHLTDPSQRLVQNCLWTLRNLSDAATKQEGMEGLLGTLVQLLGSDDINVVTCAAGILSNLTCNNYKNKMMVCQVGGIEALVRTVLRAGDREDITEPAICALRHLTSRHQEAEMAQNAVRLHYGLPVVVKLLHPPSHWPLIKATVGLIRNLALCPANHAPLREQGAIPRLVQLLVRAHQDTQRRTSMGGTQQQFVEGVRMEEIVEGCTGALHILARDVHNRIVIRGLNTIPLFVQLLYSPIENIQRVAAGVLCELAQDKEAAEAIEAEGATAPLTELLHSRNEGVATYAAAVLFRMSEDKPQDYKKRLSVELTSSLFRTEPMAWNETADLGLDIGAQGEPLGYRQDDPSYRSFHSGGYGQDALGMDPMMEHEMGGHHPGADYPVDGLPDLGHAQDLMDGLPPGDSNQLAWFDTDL
# CHI Log D procedure = type: physicochemical
# [2] = fluorescence polarization, read-out: beta-Catenin FP IC50
# [3] = Table E2-1, read-out: beta-Catenin FP IC50
# [4] = fluorescence polarization, beta-catenin, read-out: FP EC50
smiles,measurement,setting,value
"C#CCOCCOCCOCCOCCC(=O)NCCCC[C@H](NC(=O)[C@H](CCC(N)=O)NC(=O)[C@H](Cc1csc2ccccc12)NC(=O)[C@H](Cc1ccsc1)NC(=O)[C@]12CCN(C1)C(=O)OCCCC=CCCCC1(CCCC=CC[C@]3(CCCN3C(C)=O)C(=O)N[C@@H](CC(=O)O)C(=O)N[C@@H](CC(C)(C)C)C(=O)N1)C(=O)N[C@@H](CC(=O)O)C(=O)N[C@@H](CC(=O)O)C(=O)N[C@@H](C)C(=O)N[C@@H](C)C(=O)N[C@@H](Cc1ccccc1)C(=O)N[C@@H](CC(N)=O)C(=O)N2)C(N)=O (stereo partly drawn) [I-938, Ac-PL3-Asp-Npg-B5-Asp-Asp-Ala-Ala-Phe-Asn-PyrS2-3Thi-BztA-Gln-[PropynPEG4]Lys-NH2]",pIC50,[1]; read-out: beta-Catenin FP IC50,8.05
same,chromatographic logD,"CHI Log D procedure; pH 7.4, CHI Log D",2.16
"CC[C@H](C)[C@@H]1NC(=O)[C@H](CC(=O)O)NC(=O)[C@]2(CC=CCCCC3(CCCC=CCCCCCC[C@@](C)(C(=O)N[C@@H](Cc4ccccc4)C(=O)N[C@@H](Cc4csc5ccccc45)C(=O)N[C@@H](CCC(N)=O)C(N)=O)NC(=O)[C@H](CCC(N)=O)NC(=O)[C@H](Cc4ccccc4)NC(=O)[C@H](C)NC(=O)[C@H](CCCCNC(=O)CN=[N+]=[N-])NC(=O)[C@H](CCC(=O)O)NC(=O)[C@H](CC(=O)O)NC3=O)NC1=O)CCCN2C(C)=O (stereo partly drawn) [I-592, Ac-PL3-Asp-Ile-B5-Asp-Glu-[AzAc]Lys-Ala-Phe-Gln-S8-Phe-BztA-Gln-NH2]",pIC50,[1]; read-out: FP EC50,7.62
same,CHI Log D,CHI Log D procedure; pH 7.4,2.414
"CC(=O)N1CCC[C@]12CC=CCCCC1(CCCC=CCCCCCC[C@@](C)(C(=O)N[C@@H](Cc3ccccc3)C(=O)N[C@@H](Cc3csc4ccccc34)C(=O)N[C@@H](CCC(N)=O)C(N)=O)NC(=O)[C@H](CCC(N)=O)NC(=O)[C@H](Cc3ccccc3)NC(=O)[C@H](C)NC(=O)[C@H](C)NC(=O)[C@H](CC(=O)O)NC(=O)[C@H](CC(=O)O)NC1=O)NC(=O)[C@H](CC(C)C)NC(=O)[C@H](CC(=O)O)NC2=O (stereo partly drawn) [I-559, Ac-PL3-Asp-Leu-B5-Asp-Asp-Ala-Ala-Phe-Gln-S8-Phe-BztA-Gln-NH2]",pIC50,[1]; [2],7.37
same,pIC50,[1]; read-out: FP EC50,7.37
same,CHI Log D,CHI Log D procedure; pH 7.4,2.341
"CC[C@H](C)[C@H](NC(=O)[C@H](CC(=O)O)NC(=O)[C@H](C)NC(C)=O)C(=O)N[C@]1(C)CCN(C)C(=O)OCC=CCCCCC[C@@](C)(C(=O)N[C@@H](Cc2ccccc2)C(=O)N[C@@H](Cc2c[nH]c3ccccc23)C(=O)N[C@@H](Cc2c[nH]cn2)C(N)=O)NC(=O)[C@H](C)NC(=O)[C@H](Cc2ccccc2)NC(=O)[C@H](C)NC(=O)[C@H](C)NC(=O)[C@H](CCC(=O)O)NC(=O)[C@H](CC(=O)O)NC1=O [I-152, Ac-Ala-Asp-Ile-RdN-Asp-Glu-Ala-Ala-Phe-Ala-S7-Phe-Trp-His-NH2]",pIC50,[1]; [3],5.30
same,chromatographic logD,"CHI Log D procedure; pH 7.4, CHI Log D",1.34
"CC(=O)N1CCC[C@]12CC=CCCCC1(CCCC=CCCCCCC[C@@](C)(C(=O)N[C@@H](Cc3ccccc3)C(=O)N[C@@H](Cc3csc4ccccc34)C(=O)N[C@@H](CCC(N)=O)C(N)=O)NC(=O)[C@H](CC(N)=O)NC(=O)[C@H](Cc3ccccc3F)NC(=O)[C@H](C)NC(=O)[C@H](C)NC(=O)[C@H](CCC(=O)O)NC(=O)[C@H](CC(=O)O)NC1=O)NC(=O)[C@H](C)NC(=O)[C@H](CC(=O)O)NC2=O (stereo partly drawn) [I-453, Ac-PL3-Asp-Ala-B5-Asp-Glu-Ala-Ala-2FF-Asn-S8-Phe-BztA-Gln-NH2]",pIC50,[1]; [2],5.81
same,chromatographic logD,"CHI Log D procedure; pH 7.4, CHI Log D",2.01
"CC(=O)N1CCC[C@]12CC=CCCCC1(CCCC=CCCCCCC[C@@](C)(C(=O)N[C@@H](Cc3ccccc3)C(=O)N[C@@H](Cc3cccc4ccc(F)cc34)C(=O)N[C@@H](CCC(N)=O)C(N)=O)NC(=O)[C@H](C(C)C)NC(=O)[C@H](Cc3ccccc3)NC(=O)[C@H](C)NC(=O)[C@H](C)NC(=O)[C@H](CC(=O)O)NC(=O)[C@H](CC(=O)O)NC1=O)NC(=O)[C@H](C)NC(=O)[C@H](CC(=O)O)NC2=O (stereo partly drawn) [I-368, Ac-PL3-Asp-Ala-B5-Asp-Asp-Ala-Ala-Phe-Val-S8-Phe-7F1NapA-Gln-NH2]",pIC50,[1]; [3],5.30
same,chromatographic logD,"CHI Log D procedure; pH 7.4, CHI Log D",2.17
"CC(=O)N1CCC[C@]12CC=CCCCC1(CCCC=CCCCCCC[C@@](C)(C(=O)N[C@@H](Cc3ccccc3)C(=O)N[C@@H](Cc3csc4ccccc34)C(=O)N[C@@H](CCC(N)=O)C(N)=O)NC(=O)[C@H](C)NC(=O)[C@H](Cc3ccccc3C)NC(=O)[C@H](C)NC(=O)[C@H](C)NC(=O)[C@H](CC(=O)O)NC(=O)[C@H](CC(=O)O)NC1=O)NC(=O)[C@H](C)NC(=O)[C@H](CC(=O)O)NC2=O (stereo partly drawn) [I-366, Ac-PL3-Asp-Ala-B5-Asp-Asp-Ala-Ala-2MeF-Ala-S8-Phe-BztA-Gln-NH2]",pIC50,[1]; [3],5.84
same,pIC50,[1]; [4],5.84
same,CHI Log D,CHI Log D procedure; pH 7.4,2.084
"CC(=O)N1CCC[C@]12CC=CCCCC1(CCCC=CCCCCCC[C@@](C)(C(=O)N[C@@H](Cc3ccccc3)C(=O)N[C@@H](Cc3csc4ccccc34)C(=O)N[C@H](CC(N)=O)C(N)=O)NC(=O)[C@H](CC(N)=O)NC(=O)[C@H](Cc3ccccc3)NC(=O)[C@H](C)NC(=O)[C@H](C)NC(=O)[C@H](CCC(=O)O)NC(=O)[C@H](CC(=O)O)NC1=O)NC(=O)[C@H](CC(C)C)NC(=O)[C@H](CC(=O)O)NC2=O (stereo partly drawn) [I-757, Ac-PL3-Asp-Leu-B5-Asp-Glu-Ala-Ala-Phe-Asn-S8-Phe-BztA-dAsn-NH2]",pIC50,[1]; read-out: FP EC50,7.19
same,pIC50,[1]; read-out: beta-Catenin FP IC50,7.19
same,CHI Log D,CHI Log D procedure; pH 7.4,2.546
"CC[C@H](C)[C@@H]1NC(=O)C[C@@H](CC(=O)O)NC(=O)[C@]2(CC=CCCCC3(CCCC=CCCCCCC[C@@](C)(C(=O)N[C@@H](Cc4ccccc4)C(=O)N[C@@H](Cc4csc5ccccc45)C(=O)N[C@@H](CCC(N)=O)C(N)=O)NC(=O)[C@H](CCC(N)=O)NC(=O)[C@H](Cc4ccccc4)NC(=O)[C@H](C)NC(=O)[C@H](C)NC(=O)[C@H](CCC(=O)O)NC(=O)[C@H](CC(=O)O)NC3=O)NC1=O)CCCN2C(C)=O (stereo partly drawn) [I-672, Ac-PL3-SbGlu-Ile-B5-Asp-Glu-Ala-Ala-Phe-Gln-S8-Phe-BztA-Gln-NH2]",pIC50,[1]; [2],5.30
same,chromatographic logD,"CHI Log D procedure; pH 7.4, CHI Log D",1.9
"CC(=O)N1CCC[C@]12CC=CCCCC1(CCCC=CCCCCCC[C@@](C)(C(=O)N[C@@H](Cc3ccccc3Cl)C(=O)N[C@@H](Cc3csc4ccccc34)C(=O)N[C@@H](C(N)=O)[C@H](C)O)NC(=O)[C@H]([C@@H](C)O)NC(=O)[C@H](Cc3ccccc3)NC(=O)[C@H](C)NC(=O)[C@H](C)NC(=O)[C@H](CCC(=O)O)NC(=O)[C@H](CC(=O)O)NC1=O)NC(=O)[C@H](CC(C)(C)C)NC(=O)[C@H](CC(=O)O)NC2=O (stereo partly drawn) [I-1094, Ac-PL3-Asp-Npg-B5-Asp-Glu-Ala-Ala-Phe-Thr-S8-2C1F-BztA-dThr-NH2]",pIC50,[1]; [4],7.34
same,pIC50,[1]; read-out: beta-Catenin FP IC50,7.34
same,CHI Log D,CHI Log D procedure; pH 7.4,3.271
"CC[C@H](C)[C@@H]1NC(=O)[C@H](CC(=O)O)NC(=O)[C@]2(CC=CCCCC3(CCCC=CCCCCCC[C@@](C)(C(=O)N[C@@H](Cc4ccccc4)C(=O)N[C@@H](Cc4csc5ccccc45)C(=O)N[C@@H](CCC(N)=O)C(N)=O)NC(=O)[C@H](CCC(N)=O)NC(=O)[C@H](Cc4ccccc4)NC(=O)[C@H](CCCCNC(=O)CN=[N+]=[N-])NC(=O)[C@H](C)NC(=O)[C@H](CCC(=O)O)NC(=O)[C@H](CC(=O)O)NC3=O)NC1=O)CCCN2C(C)=O (stereo partly drawn) [I-593, Ac-PL3-Asp-Ile-B5-Asp-Glu-Ala-[AzAc]Lys-Phe-Gln-S8-Phe-BztA-Gln-NH2]",IC50,[1]; FP EC50 (nM),68 nM
same,chromatographic logD,CHI Log D procedure; pH 7.4,2.12
"CC(=O)N1CCC[C@]12CC=CCCCC1(CCCC=CCCCCCC[C@@](C)(C(=O)N[C@@H](Cc3ccccc3)C(=O)N[C@@H](Cc3c[nH]c4ccccc34)C(=O)N[C@@H](CCC(N)=O)C(N)=O)NC(=O)[C@H](C(C)C)NC(=O)[C@H](Cc3ccccc3)NC(=O)[C@H](C)NC(=O)[C@H](C)NC(=O)[C@H](CCC(=O)O)NC(=O)[C@H](CC(N)=O)NC1=O)NC(=O)[C@H](C)NC(=O)[C@H](CC(=O)O)NC2=O (stereo partly drawn) [I-198, Ac-PL3-Asp-Ala-B5-Asn-Glu-Ala-Ala-Phe-Val-S8-Phe-Trp-Gln-NH2]",pIC50,[1]; [3],5.30
same,chromatographic logD,"CHI Log D procedure; pH 7.4, CHI Log D",2.37
"CC(=O)N[C@@H](Cc1ccccc1)C(=O)N[C@@H](CC(=O)O)C(=O)N[C@@H](C)C(=O)N[C@]1(C)CCCCCCC=CCOC(=O)N2CC[C@@](C(=O)N[C@@H](Cc3ccccc3)C(=O)N[C@@H](Cc3c[nH]c4ccccc34)C(=O)N[C@@H](CCC(N)=O)C(N)=O)(C2)NC(=O)[C@H](C(C)C)NC(=O)[C@H](Cc2ccccc2)NC(=O)[C@H](C)NC(=O)[C@H](C)NC(=O)[C@H](CCC(=O)O)NC(=O)[C@H](CC(=O)O)NC1=O [I-3, Ac-Phe-Asp-Ala-R8-Asp-Glu-Ala-Ala-Phe-Val-PyrS-Phe-Trp-Gln-NH2]",CHI Log D,CHI Log D procedure; pH 7.4,1.307
"CC(=O)N1CCC[C@]12CC=CCCCC1(CCCC=CCCCCCC[C@@](C)(C(=O)N[C@@H](Cc3ccccc3)C(=O)N[C@@H](Cc3c[nH]c4ccccc34)C(=O)N[C@@H](CCC(N)=O)C(N)=O)NC(=O)[C@H](C(C)C)NC(=O)[C@H](Cc3ccc(Cl)cc3)NC(=O)[C@H](C)NC(=O)[C@H](C)NC(=O)[C@H](CC(=O)O)NC(=O)[C@H](CC(=O)O)NC1=O)NC(=O)[C@H](C)NC(=O)[C@H](CC(=O)O)NC2=O (stereo partly drawn) [I-308, Ac-PL3-Asp-Ala-B5-Asp-Asp-Ala-Ala-4C1F-Val-S8-Phe-Trp-Gln-NH2]",CHI Log D,CHI Log D procedure; pH 7.4,2.03
